Results taken from PubChem BioAssay AID2765 (Broad Institute, 2010).
Activity calls are given as the source filed them.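 Rule for the calls: active = half-maximal concentration for the rise in caspase light signal at or below ten times the top tested dose; inconclusive = flat fit between 30% and 70% activity, or unreliable curve fit; inactive = the rest.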

These compounds were tested on MEF A1-2A-BIM cells, caspase 3/7 luminescence, 3 h (assay: caspase activation in A1-2A-BIM MEF cells, dose response, A1 inhibitor project, cell-based, luminescence, retest (AID 2765)).

Compound | EC50
O=C(CN1C(=O)NC2(CCCCCC2)C1=O)Nc1cccc(F)c1 | > 35 µM (inactive)
COc1ccc(C(=O)COC(=O)Cn2[nH]c(=O)c3ccccc3c2=O)c(OC)c1 | > 35 µM (inactive)
CCN(CC)C1CCN(C(=O)c2ccc(OC3CCN(CCc4ccccc4)CC3)cc2)C1 (stereo unspecified) | > 35 µM (inactive)
CCOC(=O)c1c(C)nc2sc(C(=O)Nc3ccc(C(C)=O)cc3)c(N)c2c1-c1ccc(OC)cc1 | > 35 µM (inactive)
OC(CNCC1COc2ccccc2O1)COc1ccc(Cl)cc1 (stereo unspecified) | > 35 µM (inactive)
Oc1ccc(/C=N/N2CCN(C3c4ccccc4-c4ccccc43)CC2)cc1O | > 35 µM (inactive)
CN(C)CCCN(C(=O)c1ccc([N+](=O)[O-])s1)c1nc2cc3c(cc2s1)OCCO3 | > 16 µM (inactive)
CCN(CC)CCCN=C(C)c1c(O)n(-c2ccccc2)c(=O)[nH]c1=O | > 35 µM (inactive)
CCCCn1c(=O)[nH]c(=O)c2c1nc(Cn1ncc(Cl)c(Cl)c1=O)n2CCC | > 35 µM (inactive)
Cc1ccc(C#N)c(SCC(=O)Nc2nccs2)n1 | > 35 µM (inactive)
CC(C)NCC(O)c1ccc(NS(C)(=O)=O)cc1 (stereo unspecified) | > 35 µM (inactive)
CCOC(=O)CCCCCNC(=O)c1ccc(F)cc1F | > 35 µM (inactive)
C=C1C(O)[C@@H]2O[C@]3(CC[C@H](/C=C/C(C)[C@@H]4CC(C)=CC5(O[C@H](C[C@@](C)(O)CO)CCC5O)O4)O3)CC[C@H]2O[C@@H]1C(O)CC(C)[C@H]1OC2(CCCCO2)CCC1C (stereo partly specified) | > 35 µM (inactive)
Cc1cccc(/C=N/NC(=O)c2cc3c(s2)-c2ccccc2CC3)c1 | > 35 µM (inactive)
CC(C)(C)CC(=O)Nc1nnc(SCC(=O)NC2CCCCC2)s1 | > 35 µM (inactive)
Oc1ccc(C[C@H]2CNCCN2CCCCC2CCCCC2)cc1 | > 35 µM (inactive)
O=C(c1ccccc1Br)N(Cc1ccccc1)c1ccccc1 | > 35 µM (inactive)
O=C(O)C(CCCCNS(=O)(=O)c1ccc(F)cc1)NS(=O)(=O)c1ccc(F)cc1 (stereo unspecified) | > 35 µM (inactive)
CSc1nc(N)c(N=Nc2ccc([As](=O)(O)O)cc2)c(=O)[nH]1 | > 35 µM (inactive)
COc1ccc(C(=O)NNC(=O)CSc2nc3c(c(=O)n(C)c(=O)n3C)n2C)cc1 | > 35 µM (inactive)
Cc1cc(C)cc(NC(=O)/C(C#N)=C/c2cn(CC(=O)NCc3ccco3)c3ccccc23)c1 | 4.65 µM
COc1cc(/C=C(/C#N)C(=O)NCCc2c[nH]c3ccccc23)ccc1OCc1ccccc1F | > 35 µM (inactive)
CCCC(=O)Nc1ncnc2c1ncn2[C@@H]1O[C@@H]2OP(=O)(O)OC[C@H]2[C@H]1OC(=O)CCC | > 35 µM (inactive)

Compound | EC50
CC(=O)OCCn1c2nc(=O)[nH]c(=O)c-2nc2cc(C)c(C)cc21 | > 35 µM (inactive)
COc1ccccc1-c1cc(C(F)(F)F)nc(S(=O)(=O)CCCC(=O)N2CCOCC2)n1 | 28.7 µM
Cc1cc(Oc2ccc(=O)[nH]n2)nc(Cl)n1 | > 35 µM (inactive)
O=C(COc1ccc(Br)cc1F)NCC1(N2CCCCC2)CCCCC1 | > 35 µM (inactive)
Cc1cc(NC(=O)COC(=O)C2=NN(c3ccccc3)C(=O)CC2)c([N+](=O)[O-])cc1C | > 35 µM (inactive)
CC(C)C(=O)Nc1cc(S(=O)(=O)N2CCOCC2)ccc1N1CCCCC1 | > 35 µM (inactive)
Cc1ccc(OCCC(=O)Nc2ccc(C)c(F)c2)cc1 | > 35 µM (inactive)
CCOc1ccccc1CNC(=O)Cn1nc(C)c2c(C)n(-c3ccc(C)cc3)nc2c1=O | > 35 µM (inactive)
COc1cccc(-n2nnnc2S(C)(=O)=O)c1 | > 35 µM (inactive)
CCOC(=O)[C@H]1[C@H]2COc3ccc(OC)cc3[C@@H]2N2C(=O)CN(CC3CCCO3)C(=O)[C@@]12C (stereo partly specified) | > 35 µM (inactive)
CC(NC(=O)c1cc(F)c(F)c(F)c1F)c1ccc(-n2ccnc2)cc1 (stereo unspecified) | > 35 µM (inactive)
CC(C(=O)N(C)c1ccccc1)N1CCN(C(=O)c2ccccc2)CC1 (stereo unspecified) | > 35 µM (inactive)
C=C(C(=O)Oc1ccccc1C(C)(C)C)c1ccccc1 | 15.9 µM
FC(F)(F)c1ccc(Sc2n[nH]c(C(F)(F)F)n2)nc1 | > 35 µM (inactive)
COC(=O)[C@@]1(C)CC[C@]2(C)CC[C@@]3(C)C(=CC(=O)C4[C@@]5(C)CC[C@H](O)C(C)(C)[C@@H]5CC[C@]43C)[C@H]2C1 (stereo partly specified) | > 35 µM (inactive)
O=C(O)c1ccccc1SCCS(=O)(=O)c1ccc(Cl)cc1Cl | > 35 µM (inactive)
CCS(=O)(=O)c1ncc(Cl)c(C(=O)Nc2ccc(S(=O)(=O)N(C)c3ccccc3)cc2)n1 | > 35 µM (inactive)
CC(=O)n1nc2nc(C)cc(C)c2c1N | > 35 µM (inactive)
COc1ccc(CCNC(=O)CSc2nc(-c3ccc(OC)c(OC)c3)ccc2C#N)cc1 | > 35 µM (inactive)
CCOC(=O)Nc1nc(-c2ccccc2)c(C(=O)c2ccccc2)s1 | > 35 µM (inactive)
CCCc1nc2cc3c(cc2[nH]1)n(C)c(=O)n3C | > 35 µM (inactive)
CS(=O)(=O)c1ncc(Cl)c(C(=O)Nc2ccc(OC(F)F)cc2)n1 | > 35 µM (inactive)
Cn1cnnc1SCC(=O)Nc1ccc(F)cc1 | > 35 µM (inactive)
